# Source: ChEMBL document CHEMBL5537152, “Targeted Degradation of PCSK9 In Vivo by Autophagy-Tethering Compounds” (J Med Chem, 2024)
# How the values were obtained:
# Mus musculus [1] = assay: Synergistic antiatherosclerotic activity in hypercholesterolemic ApoE-/- mouse model assessed as decrease in plasma LDL-C level at 15 mg/kg, ip administered daily for 3 weeks; format: functional; set-up: scale not given: the % may be the effect or the level left
# Mus musculus [2] = assay: Antiatherosclerotic activity in hypercholesterolemic ApoE-/- mouse model assessed as decrease in plasma LDL-C level at 15 mg/kg/day, ip measured after 21 days relative to control; format: functional; conditions: time 21 day
compound,measurement,setting,value
CCC(C)(C)C(=O)O[C@H]1C[C@@H](C)C=C2C=C[C@H](C)[C@H](CC[C@@H]3C[C@@H](O)CC(=O)O3)[C@H]21 [SIMVASTATIN],Activity,Mus musculus [1],23.59%
same,Efficacy,Mus musculus [2],23.59%
